Test system: heart rhythm of a patient
Assay: Clinical data: oral levosimendan in a patient with wandering atrial pacemaker, first degree AV block, junctional rhythm
Assay type: in vivo, human
Method: The underlying heart rhythm of a patient on intravenous milrinone was wandering atrial pacemaker with a first degree AV block alternating with a junctional rhythm and sinus rhythm. The overall heart rate was around 70 bpm. Because of failure to wean the milrinone the patient was entered into oral levosimendan first at 1 mg followed by 2 mg and subsequently by 4 mg qd. […] Their levosimendan dose was reduced to 2 mg and maintained at that dose during the taper of intravenous milrinone. […] Milrinone was tapered off and the patient could be transferred out of the intensive care unit. The patient's dose of levosimendan was continued at 1 mg three times a day.

CC1CC(=O)NN=C1c1ccc(NN=C(C#N)C#N)cc1 (single isomer, unassigned; (-)) [levosimendan, (−)-[[4-(1,4,5,6-tetrahydro-4-methyl-6-oxo-3-pyridazinyl)phenyl]hydrazono]propanedinitrile]
cardiac rhythm (levosimendan 2 mg during taper of intravenous milrinone): regularize with a vast majority of the beats being sinus node in origin | overall heart rate (levosimendan dose reduced to 2 mg, maintained during taper of intravenous milrinone): 80-85 bpm | heart rate (oral levosimendan 1 mg, then 2 mg, then 4 mg qd, patient on intravenous milrinone, baseline around 70 bpm): over 90 bpm
